{"source": "paper PMC4312240", "about": "(Bioorganic & medicinal chemistry, 2014)", "key": {"HBV [1]": {"system": "HBV", "experiment": "Anti-HBV activity in HepG2 cells", "type": "cell-based", "settings": "for Anti-HBV potency compared with DAPD prodrug 5: comparison in words"}, "HBV [2]": {"system": "HBV", "settings": "in words; cited from earlier work"}, "HIV": {"system": "HIV", "settings": "in words; cited from earlier work"}}, "data": [{"substance": "(2S)-Ethyl 2-(((((2R,4R)-4-(2-amino-6-palmitamido-9H-purin-9-yl)-1,3-dioxolan-2-yl)methoxy)(phenoxy)phosphoryl)amino)propanoate [Compound 10h]", "values": [{"measurement": "Anti-HBV potency compared with DAPD prodrug 5", "setting": "HBV [1]", "result": "in the same range as DAPD prodrug 5"}]}, {"substance": "(2S)-Ethyl 2-(((((2R,4R)-4-(2-amino-6-tetradecanamido-9H-purin-9-yl)-1,3-dioxolan-2-yl)methoxy)(phenoxy)phosphoryl)amino)propanoate [Compound 10g]", "values": [{"measurement": "Anti-HBV potency compared with DAPD prodrug 5", "setting": "HBV [1]", "result": "in the same range as DAPD prodrug 5"}]}, {"substance": "(2S)-ethyl 2-(((((2R,4R)-4-(2-amino-6-hydroxy-9H-purin-9-yl)-1,3-dioxolan-2-yl)methoxy)(phenoxy)phosphoryl)amino)propanoate [Compound 5]", "values": [{"measurement": "Factor of increase in potency against HBV compared with DAPD", "setting": "HBV [1]; ratio of EC50 values, DAPD vs prodrug", "result": 40}]}, {"substance": "(−)-β-D-(2R,4R)-1,3-dioxolane-2-amino-6-aminopropyl purine nucleoside phosphoramidate prodrug [Compound 4]", "values": [{"measurement": "Activity against HBV", "setting": "HBV [2]", "result": "submicromolar"}, {"measurement": "Activity against HIV", "setting": "HIV", "result": "submicromolar"}]}]}
